According to US20190092804A1, “URACYL SPIROOXETANE NUCLEOSIDES” (Janssen Sciences Ireland Unlimited Company, priority 2012, published 2019):
Read-outs that look alike come from different tables or passages of the source.

Tests used:
[1] = tested on: HCV 1b bicistronic subgenomic luciferase reporter replicon clone ET or Huh-Luc-Neo; experiment: Replicon assays (B), Assay 2; type: cell-based; conditions: Hepatitis C virus, 72 h, 3-day incubation, 2×10^4 cells, 96-well, n = 4, read-out: Average EC50 value (8a), Assay 2
Procedure: The anti-HCV activity of compound 8a was tested in cell culture with replicon cells generated using reagents from the Bartenschlager laboratory (the HCV 1b bicistronic subgenomic luciferase reporter replicon clone ET or Huh-Luc-Neo). The protocol included a 3-day incubation of 2×10^4 replicon cells in a 96-well format in a six-point 1:5 dilution series of the compound. Dose response curves were generated based on the luciferase read-out.

[2] = tested on: HCV 1b bicistronic subgenomic luciferase reporter replicon clone ET or Huh-Luc-Neo; experiment: Replicon assays (B), Assay 3; type: cell-based; conditions: Hepatitis C virus, 72 h, 3-day incubation, 8×10^3 or 2×10^4 cells, 96-well, n = 1
Procedure: The anti-HCV activity of compound 8a was tested in cell culture with replicon cells generated using reagents from the Bartenschlager laboratory (the HCV 1b bicistronic subgenomic luciferase reporter replicon clone ET or Huh-Luc-Neo). The protocol included either a 3-day incubation of 8×10^3 cells or 2×10^4 cells in a 96-well format in an eight-point 1:5 dilution series of the compound. Dose response curves were generated based on the luciferase read-out.

[3] = tested on: HCV type 1b replicon (Huh-7 luc/neo cells); experiment: Replicon assay (A), Huh-Luc luciferase read-out; type: cell-based, HCV genotype 1b; conditions: Hepatitis C virus, Huh-7, 72 h, read-out: EC50 (μM) (HCV)
From the text: The compounds of formula I were examined for activity in the inhibition of HCV-RNA replication in a cellular assay. […] The cellular assay was based on a bicistronic expression construct, as described by Lohmann et al. (1999) Science vol. 285 pp. 110-113 with modifications described by Krieger et al. (2001) Journal of Virology 75: 4614-4624, in a multi-target screening strategy.
In essence, the method was as follows. The assay utilized the stably transfected cell line Huh-7 luc/neo (hereafter referred to as Huh-Luc). This cell line harbors an RNA encoding a bicistronic expression construct comprising the wild type NS3-NS5B regions of HCV type 1b translated from an internal ribosome entry site (IRES) from encephalomyocarditis virus (EMCV), preceded by a reporter portion (FfL-luciferase), and a selectable marker portion (neo^R, neomycine phosphotransferase). […]
The replicon cells were plated in 384-well plates in the presence of the test and control compounds which were added in various concentrations. Following an incubation of three days, HCV replication was measured by assaying luciferase activity (using standard luciferase assay substrates and reagents and a Perkin Elmer ViewLux™ ultraHTS microplate imager). […] The inhibitory activity of the compound on luciferase activity was monitored on the Huh-Luc cells, enabling a dose-response curve for each test compound. […]

[4] = tested on: HCV 1b bicistronic subgenomic luciferase reporter replicon clone ET; experiment: Replicon assays (B), Assay 1; type: cell-based; conditions: Hepatitis C virus, 72 h; 3-day incubation, 2500 cells 384-well luciferase (variation: 3000 cells 96-well qRT-PCR); n = 8
Procedure: The anti-HCV activity of compound 8a was tested in cell culture with replicon cells generated using reagents from the Bartenschlager laboratory (the HCV 1b bicistronic subgenomic luciferase reporter replicon clone ET). The protocol included a 3-day incubation of 2500 replicon cells in a 384-well format in a nine-point 1:4 dilution series of the compound. Dose response curves were generated based on the firefly luciferase read-out. In a variation of this assay, a 3 day incubation of 3000 cells in a 96-well format in a nine-point dilution series was followed by qRT-PCR Taqman detection of HCV genome, and normalized to the cellular transcript, RPL13 (of the ribosomal subunit RPL13 gene) as a control for compound inhibition of cellular transcription.

[5] = Cytotoxicity (CC50) in Huh-7; type: cell-based; conditions: human, Huh-7 cells; Huh-7 cytotoxicity
From the text: The in vitro antiviral activity against HCV of the compounds of formula I can be tested in a cellular HCV replicon system based on Lohmann et al. (1999) Science 285:110-113, with the further modifications described by Krieger et al. (2001) Journal of Virology 75: 4614-4624 (incorporated herein by reference), which is further exemplified in the examples section. This model, while not a complete infection model for HCV, is widely accepted as the most robust and efficient model of autonomous HCV RNA replication currently available. It will be appreciated that it is important to distinguish between compounds that specifically interfere with HCV functions from those that exert cytotoxic or cytostatic effects in the HCV replicon model, and as a consequence cause a decrease in HCV RNA or linked reporter enzyme concentration. Assays are known in the field for the evaluation of cellular cytotoxicity based for example on the activity of mitochondrial enzymes using fluorogenic redox dyes such as resazurin. Furthermore, cellular counter screens exist for the evaluation of non-selective inhibition of linked reporter gene activity, such as firefly luciferase. […]

HCV G1a = experiment: In vivo efficacy assay, humanized hepatocyte mouse model; parameters: species or system HCV G1a-infected PXB-mice; conditions: PXB-mice
Procedure: The in vivo efficacy of compound 8a and CAS-1375074-52-4 was determined in a humanized hepatocyte mouse model (PBX-mouse) as previously described in Inoue et. al (Hepatology. 2007 April; 45(4):921-8) and Tenato et. al. (Am J Pathol 2004; 165-901-912) with the following specification: Test animals: HCV […]-infected PXB-mice, male or female, >70% replacement index of human hepatocytes. Dosing was performed p.o for 7 days at doses indicated below wherein QD represents a single dose per day, BID represents two doses per day. Efficacy of compound 8a was compared to CAS-1375074-52-4.

[6] = tested on: JFH1-HCVcc in primary human hepatocytes; type: cell-based, HCV (JFH1); human hepatocytes; conditions: 3 days
Procedure: Primary human hepatocytes (PHH) were prepared from patients undergoing partial hepatectomy for metastases or benign tumors. Fresh human hepatocytes were isolated from encapsulated liver fragments using a modification of the two-step collagenase digestion method. Briefly, encapsulated liver tissue was placed in a custom-made perfusion apparatus and hepatic vessels were cannulated with tubing attached multichannel manifold. The liver fragment was initially perfused for 20 min with a prewarmed (37° C.) calcium-free buffer supplemented with ethylene glycol tetraacetic acid (EGTA) followed by perfusion with a prewarmed (37° C.) buffer containing calcium (CaCl2), H2O2) and collagenase 0.05% for 10 min. Then, liver fragment was gently shaken to free liver cells in Hepatocyte Wash Medium. Cellular suspension was filtered through a gauze-lined funnel. Cells were centrifuged at low speed centrifugation. The supernatant, containing damaged or dead hepatocytes, non parenchymal cells and debris was removed and pelleted hepatocytes were re-suspended in Hepatocyte Wash Medium. Viability and cell concentration were determined by trypan blue exclusion test.
Cells were resuspended in complete hepatocyte medium consisting of William's medium (Invitrogen) supplemented with 100 IU/L insulin (Novo Nordisk, France), and 10% heat inactivated fetal calf serum (Biowest, France), and seeded at a density 1.8×10^6 viable cells onto 6 well plates that had been precoated with a type I collagen from calf skin (Sigma-Aldrich, France) The medium was replaced 16-20 hours later with fresh complete hepatocyte medium supplemented with hydrocortisone hemisuccinate (SERB, Paris, France), and cells were left in this medium until HCV inoculation. The cultures were maintained at 37° C. in a humidified 5% CO2 atmosphere.
The PHHs were inoculated 3 days after seeding. JFH1-HCVcc stocks were used to inoculate PHHs for 12 hours, at a multiplicity of infection (MOI) of 0.1 ffu per cell. After a 12-hours incubation at 37° C., the inoculum was removed, and monolayers were washed 3 times with phosphate-buffered saline and incubated in complete hepatocyte medium containing 0.1% dimethylsufoxide as carrier control, 100 IU/ml of IFNalpha as […] or else increasing concentrations of compound 8a. The cultures then were maintained during 3 days.
Total RNA was prepared from cultured cells or from filtered culture supernatants using the RNeasy or Qiamp viral RNA minikit respectively (Qiagen SA, Courtaboeuf, France) according to the manufacturer's recommendations. HCV RNA was quantified in cells and culture supernatants using a strand-specific reverse real-time PCR technique described previously (Carrière M and al 2007):
Reverse transcription was performed using primers described previously located in the […] region of HCV genome, tag-RC1 (5′-[…]-3′) and RC21 (5′-[…]-3′) for the negative and positive strands, respectively. After a denaturation step performed at 70° C. for 8 min, the RNA template was incubated at 4° C. for 5 min in the presence of 200 ng of tag-RC1 primer and 1.25 mM of each deoxynucleoside triphosphate (dNTP) (Promega, Charbonnieres, France) in a total volume of 12 μl.
Reverse transcription was carried out for 60 min at 60° C. in the presence of 20 U RNaseOut™ (Invitrogen, Cergy Pontoise, France) and 7.5 U Thermoscript™ reverse transcriptase (Invitrogen), in the buffer recommended by the manufacturer. An additional treatment was applied by adding 1 μl (2U) RNaseH (Invitrogen) for 20 min at 37° C.
The first round of nested PCR was performed with 2 μl of the cDNA obtained in a total volume of 50 μl, containing 3 U Taq polymerase (Promega), 0.5 mM dNTP, and 0.5 μM RC1 (5′-[…]-3′) and RC21 primers for positive-strand amplification, or Tag (5′-[…]-3′) and RC21 primers for negative strand amplification. […]

In the case of CC(C)O[P@@]1(=O)OC[C@H]2O[C@@H](n3ccc(=O)[nH]c3=O)[C@@]3(CCO3)[C@@H]2O1 [Compound 8a], the EC50 [1] is reported as 17.5 µM, the EC50 [2] is reported as over 100 µM and the EC50 [3] is reported as 0.13 µM. The EC50 [4] was 57 µM, the CC50 [5] was over 100 µM and the “log drop HCV viral RNA after dosing for 7 days” value (“log drop HCV viral RNA” below) (HCV G1a; 50 mg/kg BID p.o.) was “clear log drop”. For the same compound, the “log drop HCV viral RNA” value (HCV G1a; 100 mg/kg BID p.o.) was “most pronounced log drop effect in viral RNA”, the “log drop HCV viral RNA” value (HCV G1a; 100 mg/kg QD p.o.) was “clear log drop” and the “log drop HCV viral RNA” value (HCV G1a; 200 mg/kg QD p.o.) was “clear log drop”. The “positive strand HCV-RNA levels in primary human hepatocytes” value (“positive strand HCV-RNA levels” for short) ([6]; Exp. 1, 0.195 μM, HCV control 3.56) was 2.18 10^6 HCV RNA copies/μg of total RNA, the “positive strand HCV-RNA levels” value ([6]; Exp. 1, 0.78 μm, HCV control 3.56) was 2.25 10^6 HCV RNA copies/μg of total RNA and the “positive strand HCV-RNA levels” value ([6]; Exp. 1, 3.12 μm, HCV control 3.56) was 1.09 10^6 HCV RNA copies/μg of total RNA. For the same compound, the “positive strand HCV-RNA levels” value ([6]; Exp. 1, 12.5 μm, HCV control 3.56) was 2.17 10^6 HCV RNA copies/μg of total RNA, the “positive strand HCV-RNA levels” value ([6]; Exp. 1, 50 μm, HCV control 3.56) was 0.94 10^6 HCV RNA copies/μg of total RNA and the “positive strand HCV-RNA levels” value ([6]; Exp. 2, 0.195 μM, HCV control 5.53) was 1.12 10^6 HCV RNA copies/μg of total RNA. The “positive strand HCV-RNA levels” value ([6]; Exp. 2, 0.78 μm, HCV control 5.53) was 1.3 10^6 HCV RNA copies/μg of total RNA, the “positive strand HCV-RNA levels” value ([6]; Exp. 2, 3.12 μm, HCV control 5.53) was 0.94 10^6 HCV RNA copies/μg of total RNA and the “positive strand HCV-RNA levels” value ([6]; Exp. 2, 12.5 μm, HCV control 5.53) was 1.3 10^6 HCV RNA copies/μg of total RNA. The “positive strand HCV-RNA levels” value ([6]; Exp. 2, 50 μm, HCV control 5.53) was 1.33 10^6 HCV RNA copies/μg of total RNA.

With IFNα the “positive strand HCV-RNA levels” value ([6]; Exp. 1, 100 IU/mL, HCV control 3.56) was 1.48 10^6 HCV RNA copies/μg of total RNA and the “positive strand HCV-RNA levels” value ([6]; Exp. 2, 100 IU/mL, HCV control 5.53) was 1.59 10^6 HCV RNA copies/μg of total RNA.
